Measurements taken from patent publication US9980976B2, “Use of REDD1 inhibitors to dissociate therapeutic and adverse atrophogenic effects of glucocorticoid receptor agonists” (Northwestern University, priority 2015, dated 2018).

Legend:
Type in all cases: in vivo
[1] = tested on: CD34+ follicular SCs and p63-positive progenitors; test: CD34+ follicular epithelial stem cells and p63+ progenitors in mouse skin (immunostaining); details: chronic FA treatment
From the text: (§1) Sections of formalin-fixed, paraffin-embedded skin and ORCs were stained with hematoxylin and eosin (H&E), Masson's trichrome to evaluate the effect on dermis and collagen fibers (Sheehan & Hrapchack, 1980), and with antibodies against BrdU (BD Biosciences, San Jose, Calif., USA), keratins 1, 5, and 10, loricrin (Covance, Princeton, N.J.), phospho-mTORSer2448 (Cell Signaling Technology, Inc., Danvers, Mass., USA), REDD1 (Proteintech Group, Inc, Chicago, Ill.), p63 (eBioscience, San Diego, Calif., USA), and CD34 (Abcam, Cambridge, Mass., USA).
The numbers of BrdU+, p63+, and total number of basal keratinocytes were evaluated in 10 fields of view in each skin/ORC sample under the microscope. Number of BrdU+ and p63+ cells is presented as percent of total number of basal keratinocytes. The number of CD34+ hair follicles among 10 randomly selected hair follicles per skin sample was evaluated under the microscope.

mouse skin = test: Glucocorticoid-induced skin atrophy in mice (morphometric analysis of dorsal skin)
Method: Seven-week-old females in the telogen stage of the hair cycle were shaved and treated 3 days later. Glucocorticoid FA was applied topically (2 μg/animal) in 200 μl acetone to the back skin once or up to four times every third day as described (Chebotaev et al, 2007c). Control animals were treated with acetone only. Animals were injected i.p. with bromodeoxyuridine (BrdU, Sigma-Aldrich, 50 μg/g of animal weight) 1 h before skin was harvested. Epidermis and s.c. fat were isolated from the murine dorsal skin mechanically by scraping (Chebotaev et al, 2007c). […] Quantification of the epidermal width and number of basal keratinocytes (as the readouts for skin atrophy and hypoplasia of raft epidermis) was performed in dorsal skin and ORC sections stained with H&E. The number of dermal cells was determined on sections stained with Masson's trichrome in the upper (papillary) dermis that is distinguishable from the lower (reticular) dermis ([…] et al, 2013). At least 10 individual fields per slide with at least three samples in each experimental group were counted using Axioplan2 microscope software (Carl Zeiss). All measurements are presented as % to corresponding control.

REDD1 = REDD1 expression in mouse epidermis and s.c. adipose (Q-PCR, Western blot, immunostaining)
Method: FIG. 16. […] F1 C57B1×129 mice were treated topically with solvent (control), FA ((2 μg/mouse×8 hrs) or pretreated with Rapamycin (500 nmol/mouse×6 hrs) followed by FA treatment for 8 h. RNA and whole cell proteins were extracted from epidermis isolated as described in Matherials and Methods. A. Q-PCR analysis of REDD1 expression. The results were normalized to the expression of the housekeeping Rp127 gene, and presented as fold of change compared to control animals. The means+/−SD calculated for three individual RNA samples/condition. a—Statistically significant difference (P<0.05) compared to control; b—Statistically significant differences (P<0.05) compared to FA treatment. B. Western blot analysis of whole cell proteins in epidermis. Membranes were probed with anti-GAPDH antibodies to verify equal protein loading and transfer. C. Ear edema test. Ear edema was induced by croton oil (CO, 20 ul/ear) as in Materials and Methods. Solvent (20 ul/ear) or FA (1 ug/ear) were applied 1 h before CO after 6 hrs of pre-treatment with rapamycin (200 ng/ear) or solvent. Mice were sacrificed and four-millimeter ear punches were weighed 9 h after CO application to assess swelling. Ear punch weight results are presented as % to control (only solvent treatment) ear weight The means+/−SD were calculated for six individual ear punches/condition in one representative experiment (out of three experiments). a—Statistically significant differences (P<0.05) compared to control treatment; b—Statistically significant differences (P<0.05) compared to CO or CO+rapa treatment.
Seven-week-old females in the telogen stage of the hair cycle were shaved and treated 3 days later. Glucocorticoid FA was applied topically (2 μg/animal) in 200 μl acetone to the back skin once or up to four times every third day as described (Chebotaev et al, 2007c). Control animals were treated with acetone only. Animals were injected i.p. with bromodeoxyuridine (BrdU, Sigma-Aldrich, 50 μg/g of animal weight) 1 h before skin was harvested. Epidermis and s.c. fat were isolated from the murine dorsal skin mechanically by scraping (Chebotaev et al, 2007c).
as §1, with “USA). […]” for “USA).”

[2] = B6D2 mice, FA 2 μg/animal topically every 72 h, 2-week treatment

With `CC1(C)O[C@@H]2C[C@H]3[C@@H]4C[C@H](F)C5=CC(=O)C=C[C@]5(C)[C@@]4(F)[C@@H](O)C[C@]3(C)[C@]2(C(=O)CO)O1` [FA, fluocinolone acetonide] the “decrease in number of p63+ basal keratinocytes” value ([1]; REDD1 KO mice) was 20%, the “hair follicles CD34 positive” value ([1]; REDD1 KO mice) was 40% and the “decrease in number of p63-positive progenitors in the basal layer of epidermis” value ([1]; wild-type mice) was ~40%. For the same compound, the “hair follicles CD34 positive” value ([1]; wild-type mice) was 5%, the “depletion of the interfollicular basal keratinocytes” value (mouse skin; [2]) was 50% and the epidermal thinning (mouse skin; [2]) was 50%. The “depletion of s.c. adipose tissue” value (mouse skin; B6D2 mice, chronic FA treatment) was “complete depletion”, the “reduction of epidermal thickness” value (mouse skin; B6×129 mice, FA 2 ug/animal every 72 h for 2 weeks, with or without rapamycin 500 ug/animal×5 hrs pretreatment) was 50% and the skin atrophy (mouse skin; F1 C57B1×129 mice, topical FA, 2 wk treatment) was “severe skin atrophy”. The “reduction of epidermal thickness” value (mouse skin; REDD1 KO mice, chronic FA 2 μg/animal every 72 h for 2 weeks) was < 20%, the “number of dermal fibroblasts” value (mouse skin; w.t. B6×129 mice treated with FA×2 wk, Masson's trichrome) was “strongly decreased” and the “reduction of epidermal thickness” value (mouse skin; wild-type B6×129 mice, chronic FA 2 μg/animal every 72 h for 2 weeks) was 50%. For the same compound, the “REDD1 expression in s.c. adipose versus epidermis” value (REDD1; B6D2 mice, 24 h after FA, Q-PCR) was “equally activated in s.c. adipose and epidermis”, the “REDD1 expression in skin” value (REDD1; F1 C57B1×129 mice, topical FA 2 ug/animal×24 h) was “strongly induced” and the “REDD1 mRNA increase” value (REDD1; epidermis of B6D2 mice, 4-24 h after the first FA application, Q-PCR) was ~4.5 fold. The REDD1 protein expression (REDD1; skin of B6D2 mice, Western blot and immunostaining, single and chronic FA) was “induced REDD1 expression as early as 4-8 h after first application”.
